# Assay results taken from patent publication US4414206A, “Animal feeds” (Bristol-Myers Company, priority 1982, dated 1983).
# Entries after “also recorded” stand apart in the source; their conditions may differ.
# Tests used:
# [1] = test system: Male broiler chickens; assay: Four week growth and feed efficiency study in broiler chicks fed amphomycin-supplemented feed; format: in vivo, chickens (Hubbard breeder pullet×White Mountain males)
# Source text: The efficacy of amphomycin in promoting growth and improving the feed efficiency of broiler chicks is illustrated below.
# In this example a basal diet was employed containing the following ingredients:
# Male broiler chickens (Hubbard breeder pullet×White Mountain males) were used as the test animal. They were housed in electrically heated, metal battery brooders equipped with raised wire-screen floors. […] The room and battery units were left unclean from a previous test that terminated before the chicks were started. Drinking water for the test came from overflow water from a laying cage operation. The water was collected in garbage cans and was allowed to stand overnight to permit particulate matter to settle out. The birds were vaccinated at 7 days of age for Newcastle, Bronchitis and Marek's. The feed trays were fitted with wire screens riding on top of the feed to minimize feed wastage. Feed and water were fed ad libitum. Four groups of ten birds each, chosen on the basis of hatching body weight, were fed the experimental diet for a four week test period and four groups were fed the control diet. The groups of birds and diets were placed in the batteries on the basis of position chosen from tables of random numbers. The birds and the feed were group weighed on a weekly basis. The test was terminated at four weeks of age.
# The control diet was prepared as follows:
# The experimental diet (for amphomycin concentration
# of 4 grams/ton) was prepared as follows:
# *calculated for both groups at 800 grams body weight from feed efficiency
# [2] = test system: rumen fermentation; assay: Artificial rumen test (in vitro rumen fermentation); settings: for Cellulose digested (%) / Methane produced (cc) / Propionate produced / Total calories digested (Calories) / Caloric efficiency: mean ± one standard deviation, three observations; for Caloric efficiency: formula in drawing 1
# Procedure: A standard in vitro method for determining compounds which stimulate propionate production during rumen fermentation is the artificial rumen method described in U.S. Pat. No. 3,794,732. […] This property in ruminants is presumably in addition to the previously-described feed-utilization efficiency promoting activity of amphomycin in monogastric animals which involves a different mechanism of action.
# Amphomycin was evaluated at doses of 0.025, 0.1 and 0.5 mg per incubation (25 ml. inoculum--artificial saliva with cellulose, starch and urea as nutrients) according to the general procedure of Example 5 of U.S. Pat. No. 3,794,732.
# ^a Results reported as mean ± one standard deviation. Controls
# ^b Reported as a percent of total volatile fatty acid calories
# [3] = 4 grams/ton amphomycin in feed, versus control group
# [4] = broiler chickens, about 4 to 12 grams per ton of feed, on average
# [5] = 0.025, 0.1 and 0.5 mg per incubation
substance,measurement,setting,value
amphomycin,Body weights in grams at 4 weeks of age,"[1]; 4 grams/ton amphomycin in feed, ad libitum, four week test, male broiler chickens",817.5 grams
same,Improvement in feed efficiency,[1]; [3],4.07%
same,Percentage increase in weight at end of 4 weeks,[1]; [3],6.21%
same,Feed efficiency calculated as consumption in grams ÷ average body weight in grams,"[1]; 4 grams/ton amphomycin in feed, calculated at 800 grams body weight from feed efficiency curve",1.480
same,less total feed consumed than comparable chickens fed same diet without amphomycin,[1]; [4],3%
same,more weight gained than comparable chickens fed same diet without amphomycin,[1]; [4],about 3%
same,Urease activity,[2]; 0.025 mg/tube,90 % of control
same,Cellulose digested (%),[2]; 0.025 mg/tube,64.9 ± 2.1%
same,Methane produced (cc),[2]; 0.025 mg/tube,2.88 ± 0.47 cc
same,Propionate produced,[2]; 0.025 mg/tube,58.9 ± 0.9% of total volatile fatt
same,Total calories digested (Calories),[2]; 0.025 mg/tube,1108 ± 22 Calories
same,Caloric efficiency,[2]; 0.025 mg/tube,62.1 ± 4.5
same,Urease activity,[2]; 0.1 mg/tube,84 % of control
same,Cellulose digested (%),[2]; 0.1 mg/tube,64.0 ± 2.4%
same,Methane produced (cc),[2]; 0.1 mg/tube,2.53 ± 0.20 cc
same,Propionate produced,[2]; 0.1 mg/tube,62.1 ± 1.7% of total volatile fatt
same,Total calories digested (Calories),[2]; 0.1 mg/tube,1098 ± 26 Calories
same,Caloric efficiency,[2]; 0.1 mg/tube,68.9 ± 10.0
same,Urease activity,[2]; 0.5 mg/tube,60 % of control
same,Cellulose digested (%),[2]; 0.5 mg/tube,57.5 ± 4.0%
same,Methane produced (cc),[2]; 0.5 mg/tube,1.27 ± 0.07 cc
same,Propionate produced,[2]; 0.5 mg/tube,67.1 ± 4.7% of total volatile fatt
same,Total calories digested (Calories),[2]; 0.5 mg/tube,1029 ± 43 Calories
same,Caloric efficiency,[2]; 0.5 mg/tube,65.5 ± 16.8
same,cellulase / cellulolysis (cellulose digestion) (in words),[2]; [5],did not significantly inhibit; also recorded: decreases slightly; also recorded: does not significantly inhibit
same,methane production (in words),[2]; [5],significantly inhibits; also recorded: decreases significantly
same,propionate production (in words),[2]; [5],significantly increase; also recorded: increases significantly
same,total calories digested (in words),[2]; [5],did not significantly inhibit cellulase or significantly affect total calories digested
same,dose that appears to be the most efficacious,[2]; 25 ml. inoculum per incubation,0.1 mg. per incubation
same,acetate and butyrate production (in words),[2]; as the dose increases,decreases
